Measurements: ChEMBL document CHEMBL5634207, “Helical sulfonyl-γ-AApeptides for the inhibition of HIV-1 fusion and HIF-1α signaling” (RSC Med Chem, 2024)

Experiments:
[1] = target: Hypoxia-inducible factor 1-alpha (Homo sapiens, UniProt Q16665); assay: Binding affinity to HIF-1alpha (unknown origin) assessed as dissociation constant
[2] = tested on: Human immunodeficiency virus 1; assay: Antiviral activity against HIV-1 IIIB infected in human MT2 cells incubated overnight by ELISA method; type: functional, organism-based; settings: Human immunodeficiency virus 1, MT2
[3] = Cytotoxicity against human MT2 cells; type: toxicity, cell-based

Sequence of Hypoxia-inducible factor 1-alpha (Q16665 whole entry): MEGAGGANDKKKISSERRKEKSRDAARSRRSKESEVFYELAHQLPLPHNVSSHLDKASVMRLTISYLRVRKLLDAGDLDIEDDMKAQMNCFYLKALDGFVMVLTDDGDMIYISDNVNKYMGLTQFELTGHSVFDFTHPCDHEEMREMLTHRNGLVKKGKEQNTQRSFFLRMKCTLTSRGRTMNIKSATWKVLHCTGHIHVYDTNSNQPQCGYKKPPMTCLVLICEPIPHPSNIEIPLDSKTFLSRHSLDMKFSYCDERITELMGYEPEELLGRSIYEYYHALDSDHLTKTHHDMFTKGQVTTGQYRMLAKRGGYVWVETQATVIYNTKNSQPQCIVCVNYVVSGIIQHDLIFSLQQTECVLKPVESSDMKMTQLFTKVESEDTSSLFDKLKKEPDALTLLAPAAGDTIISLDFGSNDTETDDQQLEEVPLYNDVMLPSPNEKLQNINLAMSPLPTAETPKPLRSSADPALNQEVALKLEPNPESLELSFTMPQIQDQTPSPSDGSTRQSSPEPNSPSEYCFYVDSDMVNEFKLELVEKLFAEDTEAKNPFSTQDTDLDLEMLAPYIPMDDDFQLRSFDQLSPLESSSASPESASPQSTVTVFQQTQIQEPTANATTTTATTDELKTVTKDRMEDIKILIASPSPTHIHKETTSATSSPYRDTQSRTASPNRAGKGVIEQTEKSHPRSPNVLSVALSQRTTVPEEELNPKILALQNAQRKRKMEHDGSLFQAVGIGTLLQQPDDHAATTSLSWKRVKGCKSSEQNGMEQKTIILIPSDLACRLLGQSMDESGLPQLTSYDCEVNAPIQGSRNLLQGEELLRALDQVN

Kd [1] [nM]	Molecule	IC50 [2] [nM]	CC50 [3] [µM]
489	CC(=O)N[C@@H](CCC(=O)O)CN(CC(=O)N[C@@H](CC(C)C)CN(CC(=O)N[C@@H](C)CN(CC(=O)N[C@@H](CCC(=O)O)CN(CC(=O)N[C@@H](CC(C)C)CN(CC(N)=O)S(=O)(=O)CC(C)C)S(C)(=O)=O)S(=O)(=O)CC(C)C)S(=O)(=O)CCN)S(=O)(=O)CC(C)C	–	–
97	CC(=O)N[C@@H](CC(C)C)CN(CC(=O)N[C@@H](CCC(=O)O)CN(CC(=O)N[C@@H](CC(C)C)CN(CC(=O)N[C@@H](CCCCN)CN(CC(=O)N[C@@H](CC(C)C)CN(CC(N)=O)S(=O)(=O)CCN)S(C)(=O)=O)S(C)(=O)=O)S(=O)(=O)CC(C)C)S(C)(=O)=O	–	–
514	CC(=O)N[C@@H](CCC(=O)O)C(=O)N[C@@H](CC(C)C)CN(CC(=O)N[C@@H](CC(C)C)CN(CC(=O)N[C@@H](CC(C)C)CN(CC(=O)N[C@@H](C)CN(CC(=O)N[C@@H](C)CN(CC(=O)N[C@@H](CCC(N)=O)C(N)=O)S(=O)(=O)CC(C)C)S(C)(=O)=O)S(=O)(=O)CC(C)C)S(=O)(=O)CCN)S(=O)(=O)CC(C)C	–	–
> 10000	Ac-EELLRALDQV-OH	–	–
–	enfuvirtide	36	> 100
